Source: US20230346820A1, “METHODS AND COMPOSITIONS FOR THE TREATMENT OF SARS-COV-2” (priority 2020, published 2023)
Counter-ions that a name gives are not always drawn. Like-named read-outs stand apart in the source and are kept apart here.

Columns and labels:
in vitro = conditions: human
HeLa-ACE2 cells [1] = test: cells; type: cell-based, human; conditions: Homo sapiens, HeLa-ACE2, read-out: HeLa-ACE-2 EC50 [μM] (Geomeans, n ≥ 2)
[2] = dog, oral; cited from earlier work
SARS-CoV-2 [3] = test system: SARS-CoV-2
SARS-CoV-2 [4] = test: microbe, parasite or virus in culture
[5] = rat, oral; cited from earlier work
SARS-CoV-2 [6] = test: Golden Syrian Hamster SARS-CoV-2 efficacy model; type: in vivo; conditions: for live viral titers in the lungs: day 5, plaque assay
[7] = Pharmacokinetic studies in Syrian hamsters; type: in vivo; conditions: single 500 mg/kg PO dose, hamster plasma
Method: Pharmacokinetic Studies. Pharmacokinetic studies were conducted at Scripps Research Institute's Animal Models Core in accordance with IACUC guidelines (IACUC Protocol #09-0004-5). Eight-week old male Syrian Hamsters (Charles River) (three per group) were dosed PO as indicated for each compound and formulation. Plasma concentration of each test article was monitored up to 48 h. Nelfinavir was formulated in 10% DMSO/90% corn oil and MK-4482 was formulated in 10% PEG400/2.5% Cremaphor RH40 for both pharmacokinetic and efficacy studies.

SARS-CoV-2 [8] = test system: SARS-CoV-2; remark: listed apart in the source
SARS-CoV-2 [9] = test: Time of addition (TOA) assay in HeLa-ACE2 cells; type: cell-based; conditions: for activity when treatment initiated at 1 hpi: 10 μM, HeLa-ACE2, time course 4 to 24 hpi
[10] = in vivo; cited from earlier work
SARS-CoV-2 [11] = test: Checkerboard synergy study with remdesivir (ZIP model, synergyfinder); type: cell-based
[12] = human, oral; cited from earlier work
[13] = mouse, cited from earlier work
SARS-CoV-2 [14] = test: SARS-CoV-2 primary ALI HBEC model; type: cell-based; conditions: apical washes 72 hpi
Method: SARS-CoV-2 primary ALI HBEC model. Normal primary human bronchial epithelial cells (HBECs) (Lonza) were cultured in Millicell-96 cell culture insert plates with 1 μm PET filters (Sigma) at an air liquid interface for at least 4 weeks using PneumaCult™-ALI Medium (Stemcell Technologies). Briefly, the HBECs were first expanded in cell culture flasks before seeding 10,000 cells per well submerged in PneumaCult™-Ex Plus Medium. After 1 week, the cells were switched into PneumaCult™-ALI Medium and medium was removed from the apical surface. The air liquid interface was maintained, and the medium exchanged every 2-3 days for at least 4 weeks to allow for differentiation of the cells. Prior to infection, the apical surface was rinsed once with DPBS and compounds were added to the basolateral chamber. 20,000 PFU SARS-CoV-2 strain USA-WA1/2020 were added to the apical surface in 50 μL PBS and allowed to incubate for 2 h. The inoculum was then removed, and the cells rinsed once with DPBS. The medium was exchanged, and fresh compound added at 24 and 48 h post-infection. Apical washes were collected at 72 h post-infection by adding 100 μL DPBS to the apical surface for 15 minutes. RNA was isolated from the apical washes using the PureLink™ Pro 96 Viral RNA/DNA Purification Kit (Thermo Fisher) and analyzed for viral RNA levels by RT-qPCR using the SuperScript™ III Platinum™ One-Step qRT-PCR Kit (Thermo Fisher) and the 2019-nCoV N1 CDC Primers and Probe set (Integrated DNA Technologies). A standard curve was generated by isolating RNA from serial dilutions of the stock virus and used to determine the PFU equivalents/mL for each sample. The viral load reductions were then determined for each experimental compound treatment compared to the neutral DMSO control and plotted in log scale. Cytotoxicity was assessed by measuring LDH activity in the basolateral media using a Cytotoxicity Detection kit (LDH) (Sigma) following the manufacturer's instructions. […] Technical triplicates were run for both antiviral and cytotoxicity readouts. […]

HeLa-ACE2 cells [15] = conditions: human
SARS-CoV-2 [16] = test: microbe, parasite or virus in culture; conditions: Severe acute respiratory syndrome coronavirus 2, Calu-3, read-out: Calu-3 SARS-CoV-2 EC50
[17] = COVID-19 patients; shortened from 15; cited from earlier work
[18] = CC50 [μM] (Geomeans, n ≥ 2 except where indicated: *n = 1)
[19] = Severe acute respiratory syndrome coronavirus 2, HeLa-ACE2, 24 h, read-out: CoV-2 EC50 [μM] (Geomeans, n ≥ 2)
[20] = Severe acute respiratory syndrome coronavirus 2, HeLa-ACE2, read-out: SARS CoV-2 EC50 (μM)
[21] = Severe acute respiratory syndrome coronavirus 2, HeLa-ACE2, read-out: SARS-CoV-2 EC50

Compound	CC50 (in vitro; [18])	CC50 (in vitro; Uninfected HeLa-ACE2 CC50 (μM))	EC50 (HeLa-ACE2 cells [1])	HeLa-ACE2 CC50/CoV-2 EC50 (SARS-CoV-2 [3])	EC50 (SARS-CoV-2 [4]; [19])	EC50 (SARS-CoV-2 [4]; [20])	Cmax [5]	activity in Calu-3 infection assay (SARS-CoV-2 [8])	Synergy score with remdesivir (δ) (SARS-CoV-2 [11]; Table 3)	further results
O=S(=O)(Nc1ccc(CCNC[C@H](O)c2cccnc2)cc1)c1ccc(-c2nc(-c3ccc(C(F)(F)F)cc3)cs2)cc1 [L 796568]	5.51 µM	5.51 µM	3.14 µM	5.28	1.04 µM	1.04 µM	–	–	–	Cmax [2]: ~300 nM; t1/2 [2]: ~14 h (dog, oral)(32)
N#Cc1c(N)nc(N)nc1N[C@H](c1nc2c(F)ccc(Cl)c2c(=O)n1-c1cccnc1)C1CC1 [GS-9901]	> 31.1 µM	> 31.1 µM	–	>8.17	3.81 µM	–	~1800 nM	–	–	t1/2 [5]: ~2 h (rat, oral)(36)
Cc1c(O)cccc1C(=O)N[C@@H](CSc1ccccc1)[C@H](O)CN1C[C@H]2CCCC[C@H]2C[C@H]1C(=O)NC(C)(C)C [nelfinavir]	–	–	–	–	–	–	–	–	–	protection from weight loss and viral replication (SARS-CoV-2 [6]; 500 mg/kg PO BID): failed to protect animals from weight loss and viral replication; time over Calu-3 SARS-CoV-2 EC50 [7]: ~3 h
CCN(CCO)CCCC(C)Nc1ccnc2cc(Cl)ccc12 (centres unmarked) [hydroxychloroquine, nasal, hydroxychloroquine]	> 18.3 µM	> 18.3 µM	–	>40.04	0.458 µM	0.458 µM	–	not active	−1.572	classification as entry inhibitor in HeLa-ACE2 cells (SARS-CoV-2 [9]): entry inhibitors; activity when treatment initiated at 1 hpi (SARS-CoV-2 [9]): Loss of activity; mortality of hospitalized COVID-19 patients [10]: failed to reduce mortality; Cmax [12]: ~1700 nM; t1/2 [12]: ~55 h (human oral)(18)
COc1ccc2cc1Oc1ccc(cc1)C[C@H]1c3cc(c(OC)cc3CCN1C)Oc1c(OC)c(OC)cc3c1[C@H](C2)N(C)CC3 [Hanfangchin A]	> 18.9 µM	> 18.9 µM	–	>16.08	1.18 µM	1.18 µM	~500 nM	–	−3.61	t1/2 [5]: ~20 h (rats, oral)(31)
CC[C@H]1OC(=O)[C@H](C)[C@@H](O[C@H]2C[C@@](C)(OC)[C@@H](O)[C@H](C)O2)[C@H](C)[C@@H](O[C@@H]2O[C@H](C)C[C@H](N(C)C)[C@H]2O)[C@](C)(O)C[C@@H](C)CN(C)[C@H](C)[C@@H](O)[C@]1(C)O [azithromycin]	–	–	–	–	–	–	–	not active	–	classification as entry inhibitor in HeLa-ACE2 cells (SARS-CoV-2 [9]): entry inhibitors
COc1cc(-n2cnc3cc(-c4ccc(Cl)cc4)sc3c2=O)ccc1OCCN1CCCC1 [GW-803430]	18.9 µM	–	–	11.16	1.7 µM	–	~585 nM	–	–	t1/2 [13]: ~11 h (mouse)(38)
CCN1CCC(c2cc(C)c3nc(-c4cc5c(C)nc(C)cn5n4)cc(=O)n3c2)CC1 [SMN-C3]	7.16 µM	7.16 µM	> 8.14 µM	5.12	1.4 µM	1.4 µM	–	–	−0.37	Synergy score with remdesivir (δ) (SARS-CoV-2 [11]; Table 1, ZIP model, δ>10 synergy, δ<−10 antagonism, between additive): −0.365; Cmax ([13]; oral): ~2000 nM
Cc1cccc(/C=N/Nc2cc(N3CCOCC3)nc(OCCc3ccccn3)n2)c1 [Apilimod]	> 27.8 µM	> 27.8 µM	> 9.6 µM	>4353.33	< 0.006 µM	< 0.006 µM	–	not active	3.57	CC50 (in vitro; uninfected HeLa-ACE2 CC50): > 40 µM; classification as entry inhibitor in HeLa-ACE2 cells (SARS-CoV-2 [9]): entry inhibitors; activity when treatment initiated at 1 hpi (SARS-CoV-2 [9]): Loss of activity; viral replication in ALI-HBECs (SARS-CoV-2 [14]): did not; interaction with remdesivir (SARS-CoV-2 [11]): additive; increase in EC50 from MOI=1 to MOI=26 (SARS-CoV-2 [3]): 3.7 fold; EC50 (SARS-CoV-2 [4]; [21]): 0.184 µM; Cmax [12]: ~600 nM; t1/2 [12]: ~3 h (human, oral)(27)
CC(C)C(=O)OC[C@H]1O[C@@H](n2ccc(NO)nc2=O)[C@H](O)[C@@H]1O [MK-4482/EIDD-2801/Molnupiravir, Molnupiravir]	> 39.8 µM	–	–	>4.21	> 9.45 µM	–	–	–	–	viral reduction compared to vehicle control (SARS-CoV-2 [6]; 50 mg/kg PO BID, day 5): 99%; live viral titers in the lungs (SARS-CoV-2 [6]; 150 mg/kg PO BID): undetectable; host immune response (RNA Seq on hamster lungs) (SARS-CoV-2 [6]; 500 mg/kg PO BID): near-complete protection from host immune response; live viral titers in the lungs (SARS-CoV-2 [6]; 500 mg/kg PO BID): undetectable; lung histological examination (SARS-CoV-2 [6]; MK-4482-treated hamsters vs vehicle): protected; activity in HeLa-ACE2 infection assay (SARS-CoV-2 [3]): not active; time over HeLa-ACE2 and Calu-3 EC50 [7]: ≥ 7 h
NCCc1cn(S(=O)(=O)c2c(Cl)nc3sccn23)c2ccccc12 [SAX-187]	7.43 µM	7.43 µM	> 9.37 µM	4.02	1.85 µM	1.85 µM	400 nM	–	–	t1/2 [5]: ~3 h (rat, oral)(39)
N=C(N)c1ccc2cc(OC(=O)c3ccc(N=C(N)N)cc3)ccc2c1 [nafamostat mesylate]	–	–	–	–	–	–	–	active	–	viral replication in ALI-HBECs (SARS-CoV-2 [14]): inhibited viral replication; activity in HeLa-ACE2 infection assay (SARS-CoV-2 [3]; text b101-b103): not active
CCC(CC)COC(=O)[C@H](C)N[P@](=O)(OC[C@H]1O[C@@](C#N)(c2ccc3c(N)ncnn23)[C@H](O)[C@@H]1O)Oc1ccccc1 [Remdesivir]	–	> 8.46 µM	> 9.6 µM	78.7	0.127 µM	0.127 µM	–	–	–	CC50 (in vitro; uninfected HeLa-ACE2 CC50): > 40 µM; activity when treatment initiated at 1 hpi (SARS-CoV-2 [9]): effectively blocked the infection; mortality of hospitalized COVID-19 patients [10]: failed to reduce mortality; CC50 (HeLa-ACE2 cells [15]): 9.97 µM; viral replication in ALI-HBECs (SARS-CoV-2 [14]): inhibited viral replication; EC50 (SARS-CoV-2 [16]): 0.444 µM; increase in EC50 from MOI=1 to MOI=26 (SARS-CoV-2 [3]): 2.7 fold; EC50 (SARS-CoV-2 [3]; read-out: SARS-CoV-2 EC50): 0.3 µM; EC50 (SARS-CoV-2 [4]; [21]): 0.194 ± 0.02 µM; median time to recovery [17]: 11 days; Cmax [12]: ~5000 nM; t1/2 [12]: ~1 h (human oral)(15)
